In PMC9516332 (Frontiers in Oncology, 2022):
Read-outs that look alike come from different tables or passages of the source.

Legend:
Assay in all cases: Kinase panel profiling at 1 µmol/L (MSA or IMAP), percentage inhibition
Format in all cases: biochemical
[1] = target: panel of 255 wild-type kinases (Homo sapiens, UniProt Q05397); conditions: read-out: %-inhibition at 1 µmol/L, FAK
[2] = target: T1, panel of 255 wild-type kinases (Homo sapiens, UniProt Q02156); conditions: read-out: %-inhibition at 1 µmol/L, PKCε
T1 sequence (Q02156 1-737): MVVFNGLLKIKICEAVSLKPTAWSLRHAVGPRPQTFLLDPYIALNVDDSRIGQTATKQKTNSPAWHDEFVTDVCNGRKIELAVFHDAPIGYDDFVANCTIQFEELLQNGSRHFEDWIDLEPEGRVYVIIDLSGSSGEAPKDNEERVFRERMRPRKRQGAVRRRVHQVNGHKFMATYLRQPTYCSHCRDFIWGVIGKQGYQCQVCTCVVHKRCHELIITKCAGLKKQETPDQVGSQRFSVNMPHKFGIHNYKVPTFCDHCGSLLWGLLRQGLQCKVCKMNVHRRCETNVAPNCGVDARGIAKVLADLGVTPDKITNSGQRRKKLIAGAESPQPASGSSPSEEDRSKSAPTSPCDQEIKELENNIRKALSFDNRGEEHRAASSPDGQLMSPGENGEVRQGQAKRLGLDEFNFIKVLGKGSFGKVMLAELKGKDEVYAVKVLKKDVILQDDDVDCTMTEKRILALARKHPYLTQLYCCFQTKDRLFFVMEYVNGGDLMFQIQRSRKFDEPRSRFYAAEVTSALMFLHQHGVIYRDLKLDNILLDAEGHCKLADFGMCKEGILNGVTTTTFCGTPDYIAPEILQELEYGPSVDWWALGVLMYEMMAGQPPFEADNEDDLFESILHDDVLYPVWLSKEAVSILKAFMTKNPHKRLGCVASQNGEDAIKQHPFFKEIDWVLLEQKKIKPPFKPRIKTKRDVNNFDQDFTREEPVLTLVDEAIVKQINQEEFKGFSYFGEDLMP

[3] = target: panel of 255 wild-type kinases (Homo sapiens, UniProt P29317); conditions: read-out: %-inhibition at 1 µmol/L, EPHA2
[4] = target: T2, panel of 255 wild-type kinases (Homo sapiens, UniProt Q96PF2); conditions: read-out: %-inhibition at 1 µmol/L, TSSK2
T2 sequence (Q96PF2 1-358): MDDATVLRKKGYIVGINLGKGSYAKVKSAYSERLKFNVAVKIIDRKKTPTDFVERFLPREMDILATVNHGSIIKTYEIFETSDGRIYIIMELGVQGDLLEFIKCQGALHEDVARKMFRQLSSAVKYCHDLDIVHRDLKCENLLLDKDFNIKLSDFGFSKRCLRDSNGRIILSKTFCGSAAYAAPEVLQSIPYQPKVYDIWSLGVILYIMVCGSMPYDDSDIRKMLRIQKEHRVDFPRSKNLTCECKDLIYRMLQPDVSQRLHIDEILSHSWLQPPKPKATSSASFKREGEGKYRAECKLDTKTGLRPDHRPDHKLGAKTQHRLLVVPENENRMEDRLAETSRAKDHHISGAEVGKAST

[5] = target: panel of 255 wild-type kinases (Homo sapiens, UniProt P05129); conditions: read-out: %-inhibition at 1 µmol/L, PKCγ
[6] = target: panel of 255 wild-type kinases (Homo sapiens, UniProt Q05655); conditions: read-out: %-inhibition at 1 µmol/L, PKCδ
[7] = target: T3, panel of 255 wild-type kinases (Homo sapiens, UniProt P52333); conditions: read-out: %-inhibition at 1 µmol/L, JAK3
T3 sequence (P52333 1-1124): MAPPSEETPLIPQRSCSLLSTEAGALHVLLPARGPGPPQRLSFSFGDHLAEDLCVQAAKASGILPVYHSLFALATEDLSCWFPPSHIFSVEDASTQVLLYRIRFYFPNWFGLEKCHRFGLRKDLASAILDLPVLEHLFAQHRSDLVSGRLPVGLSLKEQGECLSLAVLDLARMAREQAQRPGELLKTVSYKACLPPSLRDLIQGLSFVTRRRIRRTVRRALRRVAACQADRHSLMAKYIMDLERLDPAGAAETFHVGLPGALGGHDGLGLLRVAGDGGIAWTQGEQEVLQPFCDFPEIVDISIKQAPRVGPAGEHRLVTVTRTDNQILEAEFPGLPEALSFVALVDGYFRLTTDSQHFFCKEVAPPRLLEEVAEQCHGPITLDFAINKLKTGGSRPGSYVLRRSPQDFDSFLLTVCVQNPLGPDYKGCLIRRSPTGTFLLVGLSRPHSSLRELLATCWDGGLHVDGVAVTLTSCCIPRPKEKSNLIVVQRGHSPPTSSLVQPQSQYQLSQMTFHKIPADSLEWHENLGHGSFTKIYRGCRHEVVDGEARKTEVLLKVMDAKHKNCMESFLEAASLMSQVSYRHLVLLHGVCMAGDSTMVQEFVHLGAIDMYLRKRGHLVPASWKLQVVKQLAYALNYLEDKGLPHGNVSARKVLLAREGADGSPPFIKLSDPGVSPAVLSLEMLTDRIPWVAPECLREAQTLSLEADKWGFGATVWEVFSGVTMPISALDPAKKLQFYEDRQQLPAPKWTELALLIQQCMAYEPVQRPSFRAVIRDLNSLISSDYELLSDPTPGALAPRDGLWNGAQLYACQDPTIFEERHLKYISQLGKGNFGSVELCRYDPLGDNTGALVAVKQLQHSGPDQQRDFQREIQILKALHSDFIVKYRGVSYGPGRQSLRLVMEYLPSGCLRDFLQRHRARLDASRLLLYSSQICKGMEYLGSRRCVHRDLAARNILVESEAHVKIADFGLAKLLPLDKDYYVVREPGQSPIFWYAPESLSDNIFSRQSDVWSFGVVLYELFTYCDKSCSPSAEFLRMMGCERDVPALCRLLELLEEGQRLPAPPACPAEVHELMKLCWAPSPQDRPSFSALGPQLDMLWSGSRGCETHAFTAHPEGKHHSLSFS

[8] = target: panel of 255 wild-type kinases (Homo sapiens, UniProt P53350); conditions: read-out: %-inhibition at 1 µmol/L, PLK1
[9] = target: panel of 255 wild-type kinases (Homo sapiens, UniProt P04626); conditions: read-out: %-inhibition at 1 µmol/L, HER2
[10] = kinase FAK, 1 µmol/L single concentration
[11] = kinase PKCε, 1 µmol/L single concentration
[12] = kinase EPHA2, 1 µmol/L single concentration
[13] = kinase TSSK2, 1 µmol/L single concentration
[14] = kinase PKCγ, 1 µmol/L single concentration
[15] = kinase PKCδ, 1 µmol/L single concentration
[16] = kinase JAK3, 1 µmol/L single concentration
[17] = kinase PLK1, 1 µmol/L single concentration
[18] = kinase HER2, 1 µmol/L single concentration

Row | Structure (SMILES) | inhibition at 1 µM [1, 10] [%] | inhibition at 1 µM [2, 11] [%] | inhibition at 1 µM [3, 12] [%] | inhibition at 1 µM [4, 13] [%] | inhibition at 1 µM [5, 14] [%] | inhibition at 1 µM [6, 15] [%] | inhibition at 1 µM [7, 16] [%] | inhibition at 1 µM [8, 17] [%] | inhibition at 1 µM [9, 18] [%] | inhibition at 1 µM [1] [%] | inhibition at 1 µM [2] [%] | inhibition at 1 µM [3] [%] | inhibition at 1 µM [4] [%] | inhibition at 1 µM [5] [%] | inhibition at 1 µM [6] [%] | inhibition at 1 µM [7] [%] | inhibition at 1 µM [8] [%] | inhibition at 1 µM [9] [%]
1 | Cc1nc(NC(=O)N2CCC[C@H]2C(N)=O)sc1-c1ccnc(C(C)(C)C(F)(F)F)c1 [alpelisib] | 3.69 | 15 | -6 | -6 | -1.86 | -7.56 | 0.447 | 0.0286 | 19 | – | – | – | – | – | – | – | – | –
2 | Cn1cc(-c2cc3c(N4CCN(c5ncc([C@@](C)(N)c6ccc(F)cc6)cn5)CC4)ncnn3c2)cn1 [avapritinib] | -2.5 | -2.54 | 60 | 1.35 | -2.11 | 5 | 64 | -1.53 | 12 | – | – | – | – | – | – | – | – | –
3 | Cn1cnc2c(F)c(Nc3ccc(Br)cc3F)c(C(=O)NOCCO)cc21 [binimetinib] | -1.33 | 11 | 9 | -5 | 0.893 | -9 | -0.365 | 0.406 | 1.43 | – | – | – | – | – | – | – | – | –
4 | CNC(=O)c1ccc(-c2cnc3ncc(Cc4ccc5ncccc5c4)n3n2)cc1F [capmatinib] | – | – | – | – | – | – | – | – | – | -6 | -19 | -1 | -3.31 | 0.161 | -10 | 3.32 | -5 | 9
5 | COc1cc2ncnc(Nc3ccc(F)c(Cl)c3)c2cc1NC(=O)/C=C/CN1CCCCC1 [dacomitinib] | -0.575 | 8 | 14 | 1.2 | 4 | 9 | 28 | 3.78 | 100 | – | – | – | – | – | – | – | – | –
6 | C[C@H](Nc1ncnc2nc[nH]c12)c1cc2cccc(Cl)c2c(=O)n1-c1ccccc1 [duvelisib] | 4 | 13 | -6.36 | -1.37 | -4.38 | 1.67 | 3 | 0.784 | 19 | – | – | – | – | – | – | – | – | –
7 | COC(=O)N[C@@H](C)CNc1nccc(-c2cn(C(C)C)nc2-c2cc(Cl)cc(NS(C)(=O)=O)c2F)n1 [encorafenib] | -3 | -7 | 9 | -2.44 | 4 | -2.67 | 2.28 | -2.56 | 4.47 | – | – | – | – | – | – | – | – | –
8 | CN1CCN(c2ccc(C(=O)Nc3n[nH]c4ccc(Cc5cc(F)cc(F)c5)cc34)c(NC3CCOCC3)c2)CC1 [entrectinib] | – | 27 | 37 | -7 | 1 | 8 | 97 | 0.212 | 22 | – | – | – | – | – | – | – | – | –
9 | CCc1nc(C(N)=O)c(Nc2ccc(N3CCC(N4CCN(C)CC4)CC3)c(OC)c2)nc1NC1CCOCC1 [gilteritinib] | – | 27 | 66 | 55 | 19 | 12 | 91 | 7.52 | 15 | 81 | – | – | – | – | – | – | – | –
10 | CCN1CCN(c2ccc(Nc3cc(N(C)C(=O)Nc4c(Cl)c(OC)cc(OC)c4Cl)ncn3)cc2)CC1 [infigratinib] | -4.48 | 4.68 | 0.318 | -3.74 | 0.114 | -3 | 7 | 0.613 | 4.73 | – | – | – | – | – | – | – | – | –
11 | O=C(Nc1cnn2ccc(N3CCC[C@@H]3c3cc(F)ccc3F)nc12)N1CC[C@H](O)C1 [larotrectinib] | 4 | 8 | 0 | -0.476 | -1.62 | -5 | 6 | -1.17 | -2.32 | – | – | – | – | – | – | – | – | –
12 | C[C@H]1Oc2cc(cnc2N)-c2c(nn(C)c2C#N)CN(C)C(=O)c2ccc(F)cc21 [lorlatinib] | – | 10 | 45 | 56 | -3.74 | 5 | 6.62 | 2.12 | 21 | – | – | – | – | – | – | – | – | –
13 | CCN1C(=O)N(c2c(F)c(OC)cc(OC)c2F)Cc2cnc3[nH]c(CN4CCOCC4)cc3c21 [pemigatinib] | 5.32 | 5 | -3.69 | -3.21 | -0.948 | 0.471 | 0.2 | -1.52 | -4 | – | – | – | – | – | – | – | – | –
